Where two headings read alike, the source gives them in different places. No end group written: not given here.
Experiments:
Staphylococcus aureus = system: Staphylococcus aureus
Protocol: (§1) Antimicrobial activity was tested against three categories of human and plant pathogenic microorganisms: Gram-positive (Bacillus subtilis, Bacillus cereus, Staphylococcus aureus), Gram-negative (Escherichia coli, Pseudomonas aeruginosa, Erwinia carotovora, Pseudomonas syringae pv. tabaci, Xanthomonas campestris pv. citri) and yeasts (Candida albicans, Cryptococcus neoformans), as previously reported. […] The full list of peptide MICs was published in an accompanying paper, and is available in the current publication as supplementary dataset (Supplementary dataset 01).
(§2) The determination of the minimum inhibitory concentration (MIC) of peptides was performed as described in “Encrypted Antimicrobial Peptides from Plant Proteins”[7]. Briefly, MICs were determined following protocols M7-A10 and M27-A3 from Clinical & Laboratory Standards Institute (CLSI) for bacteria and yeasts, respectively. Different concentrations of IAPs (0.5 to 256 μM) were tested against several microorganisms in a final volume of 100 µL. Three biological repetitions, with 2 technical replicates each, were performed for each test, on polystyrene flat-bottom 96 wells microplates. The minimum inhibitory concentration (MIC) was defined as the concentration at which no cells were detected when visualized by optical microscopy. Please refer to the literature[7] for further details of the microbiological assays.

[1] = system: Pseudomonas syringae pv. tabaci
Protocol: as §1, §2

Bacillus subtilis = system: Bacillus subtilis
Protocol: as §1, §2

Pseudomonas aeruginosa = system: Pseudomonas aeruginosa
Protocol: as §1, §2

Bacillus cereus = system: Bacillus cereus
Protocol: as §1, §2

Erwinia carotovora = system: Erwinia carotovora
Protocol: as §1, §2

Xanthomonas campestris = details: for Minimum inhibitory concentration, Average: average of triplicates
Protocol: as §1, §2

Candida albicans = system: Candida albicans
Protocol: as §1, §2

Escherichia coli = system: Escherichia coli
Protocol: as §1, §2

Cryptococcus neoformans = system: Cryptococcus neoformans
Protocol: as §1, §2

[2] = Staphylococcus aureus, CLSI M7-A10, triplicate 1
[3] = Staphylococcus aureus, average of triplicates
[4] = Staphylococcus aureus, triplicate 2
[5] = Staphylococcus aureus, triplicate 3
[6] = Pseudomonas syringae pv. tabaci, CLSI M7-A10, triplicate 1
[7] = Pseudomonas syringae pv. tabaci, average of triplicates
[8] = Pseudomonas syringae pv. tabaci, triplicate 2
[9] = Pseudomonas syringae pv. tabaci, triplicate 3
[10] = Bacillus subtilis, CLSI M7-A10, triplicate 1
[11] = Bacillus subtilis, average of triplicates
[12] = Bacillus subtilis, triplicate 2
[13] = Bacillus subtilis, triplicate 3
[14] = Bacillus cereus, CLSI M7-A10, triplicate 1
[15] = Bacillus cereus, average of triplicates
[16] = Erwinia carotovora, CLSI M7-A10, triplicate 1
[17] = Erwinia carotovora, average of triplicates
[18] = Erwinia carotovora, triplicate 2
[19] = Erwinia carotovora, triplicate 3
[20] = Candida albicans, CLSI M27-A3, 0.5 to 256 μM tested, triplicate 1, also published in ref 7
[21] = Candida albicans, average of triplicates
[22] = Escherichia coli, CLSI M7-A10, triplicate 1
[23] = Escherichia coli, average of triplicates
[24] = Cryptococcus neoformans, CLSI M27-A3, triplicate 1
[25] = Cryptococcus neoformans, average of triplicates
[26] = Cryptococcus neoformans, triplicate 2
[27] = Cryptococcus neoformans, triplicate 3
[28] = Pseudomonas aeruginosa, CLSI M7-A10, triplicate 1
[29] = Pseudomonas aeruginosa, average of triplicates
[30] = Pseudomonas aeruginosa, triplicate 2
[31] = Pseudomonas aeruginosa, triplicate 3

Row | Substance | Minimum inhibitory concentration (Staphylococcus aureus; [2]) | Minimum inhibitory concentration, Average (Staphylococcus aureus; [3]) | Minimum inhibitory concentration (Staphylococcus aureus; [4]) | Minimum inhibitory concentration (Staphylococcus aureus; [5]) | Minimum inhibitory concentration [1, 6] | Minimum inhibitory concentration, Average [1, 7] | Minimum inhibitory concentration [1, 8] | Minimum inhibitory concentration [1, 9] | Minimum inhibitory concentration (Bacillus subtilis; [10]) | Minimum inhibitory concentration, Average (Bacillus subtilis; [11]) | Minimum inhibitory concentration (Bacillus subtilis; [12]) | Minimum inhibitory concentration (Bacillus subtilis; [13]) | Minimum inhibitory concentration (Xanthomonas campestris; CLSI M7-A10, triplicate 1) | Minimum inhibitory concentration, Average (Xanthomonas campestris) | Minimum inhibitory concentration (Xanthomonas campestris; triplicate 2) | Minimum inhibitory concentration (Xanthomonas campestris; triplicate 3) | Minimum inhibitory concentration (Cryptococcus neoformans; [24]) | Minimum inhibitory concentration, Average (Cryptococcus neoformans; [25]) | Minimum inhibitory concentration (Cryptococcus neoformans; [26]) | Minimum inhibitory concentration (Cryptococcus neoformans; [27]) | also measured
1 | GLLFKELQKLIRYQIFIGK [Tc10] | 512 µM | 512.0 µM | 512 µM | 512 µM | 512 µM | 512.0 µM | 512 µM | 512 µM | 16 µM | 16.0 µM | 16 µM | 16 µM | 128 µM | 128.0 µM | 128 µM | 128 µM | 64 µM | 64.0 µM | 64 µM | 64 µM | Minimum inhibitory concentration (Pseudomonas aeruginosa): 128 µM; Minimum inhibitory concentration, Average (Pseudomonas aeruginosa): 128.0 µM; Minimum inhibitory concentration (Bacillus cereus; [14]): 512 µM; Minimum inhibitory concentration, Average (Bacillus cereus; [15]): 512.0 µM; Minimum inhibitory concentration (Bacillus cereus; Bacillus cereus, triplicate 2): 512 µM; Minimum inhibitory concentration (Bacillus cereus; Bacillus cereus, triplicate 3): 512 µM; Minimum inhibitory concentration (Erwinia carotovora; [16]): 512 µM; Minimum inhibitory concentration, Average (Erwinia carotovora; [17]): 512.0 µM; Minimum inhibitory concentration (Erwinia carotovora; [18]): 512 µM; Minimum inhibitory concentration (Erwinia carotovora; [19]): 512 µM; Minimum inhibitory concentration (Candida albicans; [20]): 64 µM; Minimum inhibitory concentration, Average (Candida albicans; [21]): 64.0 µM; Minimum inhibitory concentration (Candida albicans; Candida albicans, triplicate 2): 64 µM; Minimum inhibitory concentration (Candida albicans; Candida albicans, triplicate 3): 64 µM; Minimum inhibitory concentration (Escherichia coli; [22]): 16 µM; Minimum inhibitory concentration, Average (Escherichia coli; [23]): 26.7 µM; Minimum inhibitory concentration (Escherichia coli; Escherichia coli, triplicate 2): 32 µM; Minimum inhibitory concentration (Escherichia coli; Escherichia coli, triplicate 3): 32 µM
2 | GLWSTIKQKGKEAAIAAAKAAGQAALGAL-NH2 [DS01, Dermaseptin DS01, reference compound] | – | – | – | – | – | – | – | – | – | – | – | – | – | 0.5 µM | – | – | – | – | – | – | Minimum inhibitory concentration, Average (Staphylococcus aureus): 8.0 µM; Minimum inhibitory concentration, Average [1]: 1.0 µM; Minimum inhibitory concentration, Average (Bacillus subtilis): 1.0 µM; Minimum inhibitory concentration, Average (Pseudomonas aeruginosa): 2.0 µM; Minimum inhibitory concentration, Average (Bacillus cereus): 16.0 µM; Minimum inhibitory concentration, Average (Erwinia carotovora): 0.5 µM; Minimum inhibitory concentration, Average (Candida albicans): 4.0 µM; Minimum inhibitory concentration, Average (Escherichia coli): 1.0 µM; Minimum inhibitory concentration, Average (Cryptococcus neoformans): 8.0 µM
3 | GLYNFIKVLGRTVFGLYKQF [At04] | 16 µM | 16.0 µM | 16 µM | 16 µM | – | – | – | – | 256 µM | 256.0 µM | 256 µM | 256 µM | 512 µM | 512.0 µM | 512 µM | 512 µM | 64 µM | 64.0 µM | 64 µM | 64 µM | Minimum inhibitory concentration [1]: 512 µM; Minimum inhibitory concentration, Average [1]: 512.0 µM; Minimum inhibitory concentration (Pseudomonas aeruginosa): 512 µM; Minimum inhibitory concentration, Average (Pseudomonas aeruginosa): 512.0 µM; Minimum inhibitory concentration (Bacillus cereus): 512 µM; Minimum inhibitory concentration, Average (Bacillus cereus): 512.0 µM; Minimum inhibitory concentration (Erwinia carotovora): 512 µM; Minimum inhibitory concentration, Average (Erwinia carotovora): 512.0 µM; Minimum inhibitory concentration (Candida albicans): 512 µM; Minimum inhibitory concentration, Average (Candida albicans): 512.0 µM; Minimum inhibitory concentration (Escherichia coli): 512 µM; Minimum inhibitory concentration, Average (Escherichia coli): 512.0 µM
4 | GSLHGFMYKYLKNMVLNLF [Tc06] | 8 µM | 13.3 µM | 16 µM | 16 µM | 16 µM | 16.0 µM | 16 µM | 16 µM | 16 µM | 16.0 µM | 16 µM | 16 µM | 64 µM | 64.0 µM | 64 µM | 64 µM | 8 µM | 10.7 µM | 8 µM | 16 µM | Minimum inhibitory concentration (Pseudomonas aeruginosa; [28]): 16 µM; Minimum inhibitory concentration, Average (Pseudomonas aeruginosa; [29]): 26.7 µM; Minimum inhibitory concentration (Pseudomonas aeruginosa; [30]): 32 µM; Minimum inhibitory concentration (Pseudomonas aeruginosa; [31]): 32 µM; Minimum inhibitory concentration (Bacillus cereus; [14]): 64 µM; Minimum inhibitory concentration, Average (Bacillus cereus; [15]): 64.0 µM; Minimum inhibitory concentration (Bacillus cereus; Bacillus cereus, triplicate 2): 64 µM; Minimum inhibitory concentration (Bacillus cereus; Bacillus cereus, triplicate 3): 64 µM; Minimum inhibitory concentration (Erwinia carotovora; [16]): 128 µM; Minimum inhibitory concentration, Average (Erwinia carotovora; [17]): 128.0 µM; Minimum inhibitory concentration (Erwinia carotovora; [18]): 128 µM; Minimum inhibitory concentration (Erwinia carotovora; [19]): 128 µM; Minimum inhibitory concentration (Candida albicans; [20]): 4 µM; Minimum inhibitory concentration, Average (Candida albicans; [21]): 4.0 µM; Minimum inhibitory concentration (Candida albicans; Candida albicans, triplicate 2): 4 µM; Minimum inhibitory concentration (Candida albicans; Candida albicans, triplicate 3): 4 µM; Minimum inhibitory concentration (Escherichia coli; [22]): 32 µM; Minimum inhibitory concentration, Average (Escherichia coli; [23]): 32.0 µM; Minimum inhibitory concentration (Escherichia coli; Escherichia coli, triplicate 2): 32 µM; Minimum inhibitory concentration (Escherichia coli; Escherichia coli, triplicate 3): 32 µM
5 | GSLHGFMYKYLKNMVLTLF [At01] | 16 µM | 16.0 µM | 16 µM | 16 µM | 16 µM | 16.0 µM | 16 µM | 16 µM | 16 µM | 16.0 µM | 16 µM | 16 µM | 128 µM | 128.0 µM | 128 µM | 128 µM | 16 µM | 16.0 µM | 16 µM | 16 µM | Minimum inhibitory concentration (Pseudomonas aeruginosa; [28]): 32 µM; Minimum inhibitory concentration, Average (Pseudomonas aeruginosa; [29]): 32.0 µM; Minimum inhibitory concentration (Pseudomonas aeruginosa; [30]): 32 µM; Minimum inhibitory concentration (Pseudomonas aeruginosa; [31]): 32 µM; Minimum inhibitory concentration (Bacillus cereus): 128 µM; Minimum inhibitory concentration, Average (Bacillus cereus): 128.0 µM; Minimum inhibitory concentration (Erwinia carotovora; [16]): 256 µM; Minimum inhibitory concentration, Average (Erwinia carotovora; [17]): 256.0 µM; Minimum inhibitory concentration (Erwinia carotovora; [18]): 256 µM; Minimum inhibitory concentration (Erwinia carotovora; [19]): 256 µM; Minimum inhibitory concentration (Candida albicans; [20]): 16 µM; Minimum inhibitory concentration, Average (Candida albicans; [21]): 16.0 µM; Minimum inhibitory concentration (Candida albicans; Candida albicans, triplicate 2): 16 µM; Minimum inhibitory concentration (Candida albicans; Candida albicans, triplicate 3): 16 µM; Minimum inhibitory concentration (Escherichia coli; [22]): 64 µM; Minimum inhibitory concentration, Average (Escherichia coli; [23]): 64.0 µM; Minimum inhibitory concentration (Escherichia coli; Escherichia coli, triplicate 2): 64 µM; Minimum inhibitory concentration (Escherichia coli; Escherichia coli, triplicate 3): 64 µM

— publication PMC5775428, “Towards an experimental classification system for membrane active peptides” (Scientific Reports, 2018)
